Experimental data from paper PMC3495162 (Journal of medicinal chemistry, 2012).
pKi: −log10 of the molar value.

Experiments:
Bcl-xL = Bcl-xL (Homo sapiens, UniProt Q07817); assay: Fluorescence polarization competitive binding assay, Bcl-xL; settings: for Times less potent than 5 in binding affinity to Bcl-xL: relative to compound 5
Mcl-1 = Mcl-1 (Homo sapiens, UniProt Q07820); assay: Fluorescence polarization competitive binding assay, Mcl-1; settings: at concentrations as high as 5 μM
[1] = system: H146 small-cell lung cancer cell line; assay: Cell growth inhibition assay, H146; type: cell-based
[2] = system: H1417 small-cell lung cancer cell line; assay: Cell growth inhibition assay, H1417; type: cell-based
[3] = relative to compounds 30 and 31

Bcl-xL, sequence (Q07817 whole entry): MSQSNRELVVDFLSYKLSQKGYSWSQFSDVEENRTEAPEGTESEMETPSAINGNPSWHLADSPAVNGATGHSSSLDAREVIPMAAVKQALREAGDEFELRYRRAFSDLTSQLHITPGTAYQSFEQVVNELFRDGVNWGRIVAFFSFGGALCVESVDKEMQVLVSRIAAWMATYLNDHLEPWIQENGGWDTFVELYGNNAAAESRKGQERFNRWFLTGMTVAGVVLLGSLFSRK
Mcl-1, sequence (Q07820 whole entry): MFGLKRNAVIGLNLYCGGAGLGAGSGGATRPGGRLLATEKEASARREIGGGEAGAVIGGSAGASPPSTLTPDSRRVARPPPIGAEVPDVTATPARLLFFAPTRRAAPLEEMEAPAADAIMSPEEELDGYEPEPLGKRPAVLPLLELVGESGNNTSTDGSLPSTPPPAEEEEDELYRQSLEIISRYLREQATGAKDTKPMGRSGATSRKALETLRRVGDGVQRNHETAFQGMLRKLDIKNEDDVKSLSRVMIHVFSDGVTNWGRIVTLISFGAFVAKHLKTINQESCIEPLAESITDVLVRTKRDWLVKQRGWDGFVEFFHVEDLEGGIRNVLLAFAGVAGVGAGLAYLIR

| Compound | pKi (Bcl-xL) | Times less potent than 5 in binding affinity to Bcl-xL (Bcl-xL) | further results |
| --- | --- | --- | --- |
| Cc1c(C(=O)O)c(-c2cccc(N3CCN(c4ccc(NS(=O)(=O)c5ccc(N[C@H](CCN(C)C)CSc6ccccc6)c([N+](=O)[O-])c5)cc4)CC3)c2)c(-c2ccc(Cl)cc2)n1C [Compound 4] | > 9.00 | – | Binding to Mcl-1 (Mcl-1): no appreciable binding |
| Cc1c(C(=O)NCCCN2CCN(C)CC2)c(-c2cccc(N3CCN(c4ccc(NS(=O)(=O)c5ccccc5)cc4)CC3)c2)c(-c2ccc(Cl)cc2)n1C [Compound 6, 5-(4-Chlorophenyl)-1,2-dimethyl-N-(3-(4-methylpiperazin-1-yl)propyl)-4-(3-(4-(4-(phenylsulfonamido)phenyl)piperazin-1-yl)phenyl)-1H-pyrrole-3-carboxamide] | – | 30 times | – |
| Cc1c(C(=O)NCCCN2CCN(C)CC2)c(-c2cccc(N3CCN(c4ccc(NS(=O)(=O)c5cccc(Br)c5)cc4)CC3)c2)c(-c2ccc(Cl)cc2)n1C [Compound 9, 5-(4-Chlorophenyl)-4-(3-(4-(4-(3-bromophenylsulfonamido)phenyl)piperazin-1-yl)phenyl) -1,2-dimethyl-N-(3-(4-methylpiperazin-1-yl)propyl)-1H-pyrrole-3-carboxamide] | – | slightly less potent than 5 | – |
| Cc1c(C(=O)NCCCN2CCN(C)CC2)c(-c2cccc(N3CCN(c4ccc(NS(=O)(=O)c5cccc(S(=O)(=O)C(F)(F)F)c5)cc4)CC3)c2)c(-c2ccc(Cl)cc2)n1C [Compound 18, 5-(4-Chlorophenyl)-1,2-dimethyl-N-(3-(4-methylpiperazin-1-yl)propyl)-4-(3-(4-(4-(3-(trifluoromethylsulfonyl)phenylsulfonamido)phenyl)piperazin-1-yl)phenyl)-1H-pyrrole-3-carboxamide] | – | as potent as 5 | – |
| Cc1c(C(=O)O)c(-c2cccc(N3CCN(c4ccc(NS(=O)(=O)c5ccc(N[C@H](CCN6CCOCC6)CSc6ccccc6)c(S(=O)(=O)C(F)(F)F)c5)cc4)CC3)c2)c(-c2ccc(Cl)cc2)n1C [Compound 23, (R)-5-(4-Chlorophenyl)-1,2-dimethyl-4-(3-(4-(4-(4-(4-morpholino-1-(phenylthio)butan-2-ylamino)-3-(trifluoromethylsulfonyl)phenylsulfonamido)phenyl)piperazin-1-yl)phenyl)-1H-pyrrole-3-carboxylic Acid] | – | – | Times less potent than 22 in inhibition of cell growth, H146 ([1]; relative to compound 22): 3–5 times; Times less potent than 22 in inhibition of cell growth, H1417 ([2]; relative to compound 22): 3–5 times |

Now from value to molecule, other results behind:

| pKi (Bcl-xL) | Times less potent than 5 in binding affinity to Bcl-xL (Bcl-xL) | Compound | further results |
| --- | --- | --- | --- |
| > 9.00 | – | Cc1c(C(=O)O)c(-c2cccc(N3CCN(c4ccc(NS(=O)(=O)c5ccc(N[C@H](CCN(C)C)CSc6ccccc6)c(S(=O)(=O)C(F)(F)F)c5)cc4)CC3)c2)c(-c2ccc(Cl)cc2)n1C [Compound 22, (R)-5-(4-Chlorophenyl)-4-(3-(4-(4-(4-(4-(dimethylamino)-1-(phenylthio)butan-2-ylamino)-3-(trifluoromethylsulfonyl)phenylsulfonamido)phenyl)piperazin-1-yl)phenyl)-1,2-dimethyl-1H-pyrrole-3-carboxylic Acid] | Binding to Mcl-1 (Mcl-1): no appreciable binding |
| > 9.00 | – | CCCn1c(C)c(C(=O)O)c(-c2cccc(N3CCN(c4ccc(NS(=O)(=O)c5ccc(N[C@H](CCN6CCC(O)CC6)CSc6ccccc6)c(S(=O)(=O)C(F)(F)F)c5)cc4)CC3)c2)c1-c1ccc(Cl)cc1 [Compound 32, (R)-5-(4-Chlorophenyl)-4-(3-(4-(4-(4-(4-(4-hydroxypiperidin-1-yl)-1-(phenylthio)butan-2-ylamino)-3-(trifluoromethylsulfonyl)phenylsulfonamido)phenyl)piperazin-1-yl)phenyl)-2-methyl-1-propyl-1H-pyrrole-3-carboxylic Acid] | Times less potent than 30 and 31 in inhibition of cell growth, H146 [1, 3]: > 10 times; Times less potent than 30 and 31 in inhibition of cell growth, H1417 [2, 3]: > 10 times |
